Data from patent US20260306491A1, “EGFR INHIBITOR FOR TREATING CANCERS COMPRISING ATYPICAL EGFR MUTATIONS” (ORIC Pharmaceuticals, Inc., priority 2023, published 2026).
“And” between values parts separate entries of the source, which are not always exact repeats. Equal entries are not always repeated.

Legend:
[1] = Biodistribution in plasma and brain after single oral dose in female CB17 SCID mice; assay type: in vivo; details: mouse
Experimental: Female non-tumor bearing Fox Chase CB17 SCID mice were orally administered a single dose as specified in Table B1.
Brain tissues were excised and plasma was collected from all the animals receiving Compound I, or tucatinib at 1 hour, 4 hours, and 8 hours post-administration. Tucatinib was used as a reference agent. Tucatinib is a clinically approved therapy for HER2 positive breast cancer patients with brain metastases. The harvested brains were rinsed in ice-cold phosphate-buffered saline and weighed. All plasma and brain samples were stored at approximately −80° C. until thawed for LC-MS/MS analysis.
Prior to analysis, brain tissues were homogenized 1:5 with phosphate buffer. Average free brain-to-free plasma ratio (Kp,uu) was calculated from individual mice by using total concentration values determined in the brain and plasma at individual time points, or by calculating the area under the curve (AUC) and converting the values to free concentration (or AUC) with in vitro binding parameters determined in the brain (fu,b) and plasma (fu,p) as follows:
Kp,uu=Brain Concentration (or AUC)*fu,b/Plasma Concentration (or AUC)*fu,p.
Free fraction in the brain (fu,b) and in plasma (fu,p) was determined with equilibrium dialysis as follows: The brain tissue homogenate or plasma from the mice were spiked to yield a final concentration of 1 μM Compound I, or 5 μM tucatinib. Compound I and tucatinib were incubated in equilibrium dialysis plate on a shaking incubator at 37° C. with 5% CO2 at 450 rpm for 8 hours and 24 hours, respectively. Following the incubation, aliquots of the matrix and the buffer samples were sampled and the concentration of Compound I, or tucatinib were determined.
where fu,b,d is fraction unbound determined with 20% brain homogenate.

[2] = tested on: HER2 exon 20 insertion mutated NSCLC; assay: Clinical study: duration of treatment and antitumor response, HER2 exon 20 insertion mutated NSCLC (Example 10); assay type: in vivo, human
Experimental: A clinical study was conducted using Compound I in human subjects having non-small cell lung cancer (NSCLC) comprising EGFR exon 20 insertion mutations, HER2 exon 20 insertion mutations, or HER2 amplification or overexpression. A total of 50 human subjects having non-small cell lung cancer comprising one or more EGFR exon 20 insertion mutations, HER2 exon 20 insertion mutations, or HER2 amplification or overexpression were enrolled in the study as of Jul. 31, 2023 with data collected as of Sep. 26, 2023. The subjects were enrolled into one of ten dosing cohorts that were each orally administered Compound I in the form of a hemifumarate salt as shown in Table 13 (QD=once per day; BID=twice per day).
Duration of treatment and antitumor responses achieved in evaluable subjects with HER2 exon 20 insertion mutate NSCLC (dose level greater than or equal to 45 mg TDD and at least one post-baseline tumor assessment) who were administered Compound I in the form of a hemifumarate salt are set forth in Tables 21 and 22, respectively.

[3] = tested on: EGFR exon 20 mutated NSCLC with active CNS metastases; assay: Clinical evaluation in one subject (Example 11); assay type: in vivo, human; details: hemifumarate, 75 mg QD
Experimental: A subject having EGFR exon 20 mutated non-small cell lung cancer was enrolled in a clinical study relating to Compound I. The cancer in the subject had been previously treated with chemotherapy (pemetrexed/cisplatin) and amivantamab. The subject presented with four active CNS non-target lesions that were previously untreated, and for which the subject had not undergone prior surgery or radiation treatment. The subject was enrolled in a dosing cohort that received 75 mg QD of Compound I in the form of a hemifumarate salt.

[4] = tested on: HER2 exon 20 mutated NSCLC; assay: Clinical evaluation in one subject (Example 12); assay type: in vivo, human; details: hemifumarate, 30 mg BID
Experimental: A subject having HER2 exon 20 mutated NSCLC was enrolled in a clinical study relating to Compound I. The cancer in the subject had been previously treated with pemetrexed/cisplatin, ipilimumab/nivolumab/carboplatin, and pemetrexed/carboplatin/pembrolizumab. The subject was enrolled in a dosing cohort that received 30 mg BID of Compound I in the form of a hemifumarate salt.

## C=CC(=O)Nc1cc(Nc2cc(N3OCC[C@@H]3c3cc(F)cc(F)c3)ncn2)c(OC)cc1N1CCC(N2CCN(C3CC3)CC2)CC1 [Compound I, N-[2-[4-(4-cyclopropyl-1-piperazinyl)-1-piperidinyl]-5-[[6-[(3R)-3-(3,5-difluorophenyl)-2-isoxazolidinyl]-4-pyrimidinyl]amino]-4-methoxyphenyl]-2-propenamide]
[1]; oral 3 mg/kg
  Bioavailability profile in plasma and brain: excellent bioavailability profile
[1]; oral 3 mg/kg, 8 h
  Unbound brain concentration: below the limit of quantitation (BLOQ)
[1]; oral, 1 h and 4 h, 3 mg/kg Compound I vs 50 mg/kg tucatinib
  Unbound brain concentration compared to tucatinib: much higher unbound brain concentration
[1]; oral, 8 h, 3 mg/kg Compound I vs 50 mg/kg tucatinib
  Unbound plasma concentration relative to tucatinib: about 15 fold
[1]; oral, first eight hours, 3 mg/kg Compound I vs 50 mg/kg tucatinib, brain context
  Total area under the curve (AUC) higher than that of tucatinib: about 800%
[1]; oral, 3 mg/kg Compound I vs 50 mg/kg tucatinib
  Blood-brain barrier penetration compared to tucatinib: superior ability of Compound I to penetrate the blood-brain barrier as compared to tucatinib
[2]; oral hemifumarate, dosing cohort 30 BID, one value per subject
  Duration of treatment: 79 days and Ongoing (3×) and 54 days
[2]; oral hemifumarate, dosing cohort 45 QD, one value per subject
  Duration of treatment: Ongoing
[2]; oral hemifumarate, dosing cohort 60 QD, one value per subject
  Duration of treatment: 28 days
[2]; oral hemifumarate, dosing cohort 75 QD, one value per subject
  Duration of treatment: 179 days and 47 days
[2]; oral hemifumarate, dosing cohort 90 QD, one value per subject
  Duration of treatment: Ongoing
[2]; oral hemifumarate, ≥45 mg TDD, one value per subject (subjects 1 to 13)
  Best percent change in the sum of target lesions from baseline: 0% (2×) and −3% and −19% and −31% and −33% and −34% and −55% and −100% and 31% and 11% and 9% and 5%
[2]; po
  Duration of treatment: 2 days
[3]; after cycle 1 (28 days)
  Reduction of all target and non-target lesions: 60%
[3]; after cycle 1, confirmed after cycle 2
  Reduction of all 4 CNS lesions: 100%
[3]; continuing
  Duration of dosing at data cutoff: on dosing cycle 9
[3]; data cutoff Sep. 26, 2023
  EGFR-related adverse events: Grade 2 mucositis and Grade 2 paronychia
[3]; end of cycle 2
  Reduction of all target and non-target lesions: 100%
[3]; end of cycle 2, confirmed
  Tumor response: complete response
[4]; after cycle 1
  Non-target lesions response: non-CR/non-PD
[4]; after cycle 1 (28 days)
  Reduction of all target lesions: 100%
[4]; after cycle 1, confirmed end of cycle 2
  Tumor response: partial response
[4]; continuing
  Duration of dosing at data cutoff: on dosing cycle 3
[4]; data cutoff Sep. 26, 2023
  EGFR-related adverse events: Grade 2 rash and Grade 2 nausea
[4]; end of cycle 2
  Reduction of all target lesions: 100%
